# Assays:
# Geotrichum sp = experiment: Efficacy against Geotrichum sp on inoculated citrus (mandarin ortanique); assay type: in vivo; conditions: K-Phos 500 ml/100 L (375 g/100 L potassium sesquiphosphite), spraying at ambient temperature
# Method: The fruits were inoculated with a suspension of spores of Geotrichum sp after perforation of the skin. […] When clove oil alone was applied, the fruits were immersed for 2 min in a bath at a temperature of between 49° C. and 51° C. The fruits were stored. At various time intervals, the fruits were individually inspected for signs of phytotoxicity and efficacy by determining the percentage of the surface of the skin affected and the stage of development of the disease in the controls. The variables studied were the incidence (percentage of fruit affected) and severity of the attack (percentage of the fruit surface affected by the disease).
# Helminthosporium solani = experiment: Viability of Helminthosporium solani propagules on treated potato tubers in storage
# Method: (§1) The efficacy of combinations of essential oils and potassium salt of phosphonic acid (potassium sesquiphosphite) to reduce the viability of fungal infection and diseases in potatoes during storage was measured in the following manner: the tubers were collected. 500 tubers were selected for their average infection of Rhizoctonia (variety Nicola Bio); Helminthosporium solani (variety Vivaldi traditional). The tubers were incubated at 15° C. for 45 days to allow the development of symptoms. 50 tubers (6 to 8 kg) were treated with a composition of essential oil (at 570 ppm or 1140 ppm), a composition of potassium salt of phosphonic acid at 0.6% or 1.2% by weight, as well as mixtures thereof. The phosphonic acid solution was sprayed at ambient temperature at an application rate of 75 mL per 5 kg. 50 mL of clove oil solution were sprayed out. The tubers were incubated at 8° C. for 45 days after treatment. The viability of colonies of Rhizoctonia and Helminthosporium was monitored.
# Rhizoctonia = experiment: Viability of Rhizoctonia propagules on treated potato tubers in storage
# Method: as §1
# [1] = tested on: Colletotrichum gloeosporioides; experiment: Treatment of olive trees affected by Colletotrichum gloeosporioides; assay type: in vivo; conditions: for Percentage of olive leaves with symptoms of infection: dose 0.5% of potassium sesquiphosphite composition alone
# Source text: A composition at about 20% of clove oil and a composition of the potassium salt of phosphonic acid were separately applied at doses of 0.3% and 0.5% respectively, as well as in combination with the same doses.
# [2] = tested on: Colletotrichum gloeosporioides; conditions: in vivo; cited from earlier work
# Penicilliums = conditions: ambient temperature, treatment doses close to 10,000 ppm, oranges; cited from earlier work
# [3] = 0.6% potassium sesquiphosphite alone, potato tubers sprayed at ambient temperature, 45 days at 8° C. after treatment
# [4] = 1.2% potassium sesquiphosphite alone, potato tubers sprayed at ambient temperature, 45 days at 8° C. after treatment
# [5] = 570 ppm oil/terpene alone, potato tubers sprayed, 45 days at 8° C. after treatment
compound,measurement,setting,value
potassium sesquiphosphite,"Percentage of fruit affected after 14 days, value in parentheses (activity compared to the control)",Geotrichum sp,no activity
same,Viability of Propagules (%) Helminthosporium solani,Helminthosporium solani; [3],30%
same,Viability of Propagules (%) Helminthosporium solani,Helminthosporium solani; [4],6%
same,Viability of Propagules (%) Rhizoctonia,Rhizoctonia; [3],60%
same,Viability of Propagules (%) Rhizoctonia,Rhizoctonia; [4],22%
same,Percentage of olive leaves with symptoms of infection,[1]; t1 + 90 days,50%
same,Percentage of olive leaves with symptoms of infection,[1]; t1,41%
O=C1C2CC=CCC2C(=O)N1SC(Cl)(Cl)Cl (stereo not drawn) [Captan],activity in control of the disease in olive orchards,[2],low level of activity
Cc1ccc(C(C)C)cc1O [carvacrol],Viability of Propagules (%) Helminthosporium solani,Helminthosporium solani; [5],50%
same,Viability of Propagules (%) Rhizoctonia,Rhizoctonia; [5],52%
CC(C)=CCC/C(C)=C/CO [geraniol],Viability of Propagules (%) Helminthosporium solani,Helminthosporium solani; [5],38%
same,Viability of Propagules (%) Rhizoctonia,Rhizoctonia; [5],83%
Cc1ccc(C(C)C)c(O)c1 [thymol],Viability of Propagules (%) Helminthosporium solani,"Helminthosporium solani; Helminthosporium solani, in vivo, 45 days, 570 ppm",45%
same,Viability of Propagules (%) Rhizoctonia,"Rhizoctonia; Rhizoctonia, in vivo, 45 days, 570 ppm",75%
"O=[PH](O)O [phosphonic acid, Phosphonic acid]",activity on Penicilliums,Penicilliums,very weak
same,control of the growth of Helminthosporium solani,Helminthosporium solani; applied alone,altogether insufficient degree
same,control of the growth of Rhizoctonia,Rhizoctonia; applied alone,altogether insufficient degree
same,activity compared to the control (olive leaf infection),[1]; applied alone,low level of activity

# From patent US9072306B2, “Method for the pre- or post-harvest treatment of plant products, using phosphonic acid and an essential oil” (priority 2010, dated 2015)
